The subject of data set [1] is secretions of natural tear components. The following applies: preclinical testing; cited from earlier work.
For data set [2] the following is noted: symptoms associated with chronic nasal congestion, cited from earlier work.
The conditions of data set [3]: cited from earlier work.
Another data set is described as follows: Solubility. The data set is classed as physicochemical.
The conditions of data set [4]: cited from earlier work. This is another data set of the same source.
The test system of another data set is rhinoviruses. The settings on record: cited from earlier work.

Consider `O=c1ccn([C@@H]2O[C@H](COP(=O)(O)OP(=O)(O)OP(=O)(O)OP(=O)(O)OC[C@H]3O[C@@H](n4ccc(=O)[nH]c4=O)[C@H](O)[C@@H]3O)[C@@H](O)[C@H]2O)c(=O)[nH]1` [diquafosol], for which the “secretions of natural tear components” value in data set [1] was “increased”.
On to `Oc1cccc(Nc2ncc(F)c(Nc3cccc(O)c3)n2)c1` [Example R112], for which the “improvement from baseline measurements” value in data set [2] (baseline prior to drug initiation) is reported as “up to 38%”. In data set [2], the “absolute difference over placebo” value is recorded as 9% and the “relative improvement over placebo” value is “greater than 20%”.
With `C[C@@H]1C[C@H]2[C@@H]3CCC4=CC(=O)C=C[C@]4(C)[C@@]3(Cl)[C@@H](O)C[C@]2(C)[C@@]1(OC(=O)c1ccco1)C(=O)CCl` [Mometasone Furoate], the bioavailability entry in data set [3] was “not readily bioavailable”.
As for `Cc1cc(CCCOc2c(C)cc(-c3noc(C(F)(F)F)n3)cc2C)on1` [Pleconaril, 1,2,4-oxadiazole3-[3,5-Dimethyl-4-[3-(3-methyl-5-isoxazolyl)propoxy]phenyl]-5-(trifluoremethyl)], the “solubility in condensed phases of hydrofluorocarbons” value in “Solubility” (certain condensed phases of hydrofluorocarbons, e.g. HFA 227) is reported as “can be dissolved”. Moreover, in the data set “Solubility” (certain glyceride oils, e.g. Miglyol 812), the “solubility in certain glyceride oils” value is given as “can be dissolved”. The “solubility in aqueous solvents” value in data set [4] is “insoluble”. Besides, the activity against rhinoviruses entry in the data set on rhinoviruses is recorded as “active”.
